# Data: US20240209028A1, “CNP COMPOUNDS” (priority 2022, published 2024)
# Starred links: 1 amine or outer side, 2 acyl side, 3 side chain; linkers in the order of their positions; H or OH if unused. Positions of bridges follow the written chain, without caps; N, C: chain ends. Non-standard residues stand in square brackets, D forms with d. Residues, ends and D or L forms follow the SMILES beside them. *: point of attachment. C18 diacid = O=C(O)CCCCCCCCCCCCCCCCC(=O)*; γGlu = O=C(O)[C@H](CCC(=O)[*:2])N[*:1]; AEEA = NCCOCCOCC(=O)O
# Target: T1, human natriuretic peptide receptor 2 (hNPR2) (Homo sapiens, UniProt P20594)
# T1 construct: expressed in transfected cells; host or cells: HEK293 (ATCC CRL-1573), clone 35, co-transfected with pGloSensor-42F
# T1 sequence (P20594 23-1047): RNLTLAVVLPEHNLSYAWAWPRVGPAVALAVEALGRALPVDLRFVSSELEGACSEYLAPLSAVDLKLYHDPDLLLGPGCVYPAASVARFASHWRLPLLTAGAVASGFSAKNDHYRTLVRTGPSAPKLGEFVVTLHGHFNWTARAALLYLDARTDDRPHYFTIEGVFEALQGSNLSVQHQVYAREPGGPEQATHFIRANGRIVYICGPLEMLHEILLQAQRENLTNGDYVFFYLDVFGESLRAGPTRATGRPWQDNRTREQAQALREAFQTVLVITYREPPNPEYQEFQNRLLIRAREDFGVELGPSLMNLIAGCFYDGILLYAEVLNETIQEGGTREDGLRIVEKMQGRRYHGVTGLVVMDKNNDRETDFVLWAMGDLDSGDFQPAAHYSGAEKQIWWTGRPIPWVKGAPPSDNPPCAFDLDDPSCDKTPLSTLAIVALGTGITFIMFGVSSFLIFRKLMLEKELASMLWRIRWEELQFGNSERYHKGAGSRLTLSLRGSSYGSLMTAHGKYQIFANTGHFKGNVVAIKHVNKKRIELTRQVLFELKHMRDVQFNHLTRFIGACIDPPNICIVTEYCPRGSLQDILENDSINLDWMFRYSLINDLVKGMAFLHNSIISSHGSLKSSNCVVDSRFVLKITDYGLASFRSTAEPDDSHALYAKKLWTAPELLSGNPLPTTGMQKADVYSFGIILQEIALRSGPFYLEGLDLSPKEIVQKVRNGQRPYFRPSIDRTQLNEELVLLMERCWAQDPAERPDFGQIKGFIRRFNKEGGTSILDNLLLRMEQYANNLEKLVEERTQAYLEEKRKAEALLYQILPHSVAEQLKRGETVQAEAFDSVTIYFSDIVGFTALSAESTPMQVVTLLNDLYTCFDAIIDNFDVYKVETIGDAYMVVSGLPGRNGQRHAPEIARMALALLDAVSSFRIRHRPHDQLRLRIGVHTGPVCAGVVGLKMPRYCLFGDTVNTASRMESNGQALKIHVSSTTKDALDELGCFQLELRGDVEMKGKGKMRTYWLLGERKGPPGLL
# Experiment: In vitro hNPR2 activity assay (cGMP GloSensor reporter, HEK293)
# Format: cell-based
# Conditions: for EC50: 0% HSA, HEK293-hNPR2/GloSensor cells; for hNPR2 0% HSA. [EC50% rel CNP]: potency relative to CNP22 (0065)
# Description: To evaluate the in vitro activity of CNP22 (0065; Chem. 1) and CNP compounds of the invention, they were tested for their ability to induce production of cyclic guanosine monophosphate (cGMP) in reporter cells expressing the human natriuretic peptide receptor 2 (hNPR2).
# Cell culture: To produce the reporter cell line, HEK293 (ATCC® CRL-1573™) cells were stably transfected with the pGloSensor-42F reporter plasmid (GloSensor cGMP reporter—luciferase, Promega) and an expression plasmid encoding the hNPR2 receptor. A single cell clone was isolated for the reporter cell line. When reporter cells are exposed to an hNPR2 activating compound, hNPR2 cause production of cGMP. […] Active GloSensor luciferase is able to convert luciferin to oxyluciferin, a process that produces bioluminescence. Upon cell lysis and supply of luciferase substrate, luciferase activity can be quantified by detection of luminescence. Therefore, addition of an hNPR2 activating compound and subsequent addition of detection reagent to reporter cells causes generation of luminescence in a dose dependent manner. […] This measure, also referred to as in vitro potency, is reported for all compounds tested. In all the in vitro activity experiments, CNP22 was used as a positive in-plate control for hNPR2 activation. To reduce inter-assay variation, we also report the potency of each compound relative to the potency of the CNP22 control on each plate.
# Procedure: HEK293-hNPR2/GloSensor clone 35 cells were continuously cultured in selection medium (DMEM containing 10% FCS, 1% P/S, 200 μg/mL G418 and 100 μg/mL hygromycin). To perform the assay, cells were detached with TrypLE Express (Gibco #12604013), put through a 70 μm cell strainer, counted and seeded in 30 μL/well assay medium (DMEM without phenol red and with 1% P/S) at 10,000 cells/well in white 384-well plates (Perkin Elmer #6007680) overnight. The following day, test compounds were serial diluted in dilution medium (DMEM without phenol red containing 1% OVA (Sigma #A5505 lot 04M7001V), 0.01% Tween20 (Roche #33766700) and 1% P/S) and 10 μL/well of diluted test compounds were subsequently added to the cells. For each compound, ten different concentrations in the range 0.25 μM-10 μM were tested. After 30 min of incubation at 37° C. and 5% CO2, 40 μL/well Bright-Glo detection reagent (Promega #E2650) was added. […] To determine the in vitro potency or EC50 of each test compound, a four parameter logistic regression was done on the raw data for each test compound using the Python package SciPy optimize. The average EC50 values are listed as “hNPR2 0% HSA. [EC50 (nM)]” in Table 2. A relative potency was calculated by the following expression: EC50 (CNP22 in-plate control)/EC50 (test compound)*100, shown as “hNPR2 0% HSA. [EC50% rel CNP]” in Table 2. A minimum of two replicates was measured for each test compound.
Compound,EC50 [nM],hNPR2 0% HSA. [EC50% rel CNP] [%]
CC[C@H](C)[C@@H]1NC(=O)[C@H](CCCNC(=N)N)NC(=O)[C@H](CC(=O)O)NC(=O)[C@H](CC(C)C)NC(=O)[C@H](CCCCN)NC(=O)[C@H](CC(C)C)NC(=O)CNC(=O)[C@H](Cc2ccccc2)NC(=O)[C@@H](NC(=O)CNC(=O)[C@H](CCCCN)NC(=O)[C@H](CO)NC(=O)[C@H](CC(C)C)NC(=O)CNC(=O)COCCOCCNC(=O)COCCOCCNC(=O)CC[C@H](NC(=O)CCCCCCCCCCCCCCCCC(=O)O)C(=O)O)CSSC[C@@H](C(=O)O)NC(=O)CNC(=O)[C@H](CC(C)C)NC(=O)CNC(=O)[C@H](CO)NC(=O)[C@H](CCSC)NC(=O)[C@H](CO)NC(=O)CNC1=O [compound 0089],12.3,3.1
CC[C@H](C)[C@@H]1NC(=O)[C@H](CCCNC(=N)N)NC(=O)[C@H](CC(=O)O)NC(=O)[C@H](CC(C)C)NC(=O)[C@H](CCCCN)NC(=O)[C@H](CC(C)C)NC(=O)CNC(=O)[C@H](Cc2ccccc2)NC(=O)[C@@H](NC(=O)CNC(=O)[C@H](CCCCN)NC(=O)[C@H](CO)NC(=O)[C@H](CC(C)C)NC(=O)CNC(=O)COCCOCCNC(=O)COCCOCCNC(=O)COCCOCCNC(=O)COCCOCCNC(=O)COCCOCCNC(=O)COCCOCCNC(=O)COCCOCCNC(=O)COCCOCCNC(=O)CC[C@H](NC(=O)CCCCCCCCCCCCCCCCC(=O)O)C(=O)O)CSSC[C@@H](C(=O)O)NC(=O)CNC(=O)[C@H](CC(C)C)NC(=O)CNC(=O)[C@H](CO)NC(=O)[C@H](CCSC)NC(=O)[C@H](CO)NC(=O)CNC1=O [compound 0231],14.5,0.8
{C18 diacid}-EGEGEGEGE[AEEA][AEEA]ARKYKGAQKKGLSQGCFGLPLDRIGSLSGLGC-OH (disulfide 27-43) [compound 1476],,48.4
CC[C@H](C)[C@@H]1NC(=O)[C@H](CCCNC(=N)N)NC(=O)[C@H](CC(=O)O)NC(=O)[C@H](CC(C)C)NC(=O)[C@@H]2CCCN2C(=O)[C@H](CC(C)C)NC(=O)CNC(=O)[C@H](Cc2ccccc2)NC(=O)[C@@H](NC(=O)CNC(=O)[C@H](CCC(N)=O)NC(=O)[C@H](CO)NC(=O)[C@H](CC(C)C)NC(=O)CNC(=O)[C@H](CCCCN)NC(=O)[C@H](CCCCN)NC(=O)[C@H](CC(N)=O)NC(=O)[C@H](C)NC(=O)CNC(=O)[C@H](CCCCN)NC(=O)[C@H](Cc2ccc(O)cc2)NC(=O)[C@H](CCCCN)NC(=O)[C@H](CCCNC(=N)N)NC(=O)[C@H](C)NC(=O)COCCOCCNC(=O)COCCOCCNC(=O)COCCOCCNC(=O)COCCOCCNC(=O)CC[C@H](NC(=O)CC[C@H](NC(=O)CC[C@H](NC(=O)CC[C@H](NC(=O)CC[C@H](NC(=O)CCCCCCCCCCCCCCCCC(=O)O)C(=O)O)C(=O)O)C(=O)O)C(=O)O)C(=O)O)CSSC[C@@H](C(=O)O)NC(=O)CNC(=O)[C@H](CC(C)C)NC(=O)CNC(=O)[C@H](CO)NC(=O)[C@H](CC(C)C)NC(=O)[C@H](CO)NC(=O)CNC1=O [compound 1464] ({C18 diacid-γGlu-γGlu-γGlu-γGlu-γGlu-AEEA-AEEA-AEEA-AEEA}-ARKYKGANKKGLSQGCFGLPLDRIGSLSGLGC-OH; disulfide 16-32; C-terminus assumed),,48.8
CC[C@H](C)[C@@H]1NC(=O)[C@H](CCCNC(=N)N)NC(=O)[C@H](CC(=O)O)NC(=O)[C@H](CC(C)C)NC(=O)[C@@H]2CCCN2C(=O)[C@H](CC(C)C)NC(=O)CNC(=O)[C@H](Cc2ccccc2)NC(=O)[C@@H](NC(=O)CNC(=O)[C@H](CO)NC(=O)[C@H](CO)NC(=O)[C@@H](NC(=O)CNC(=O)[C@H](CCCCN)NC(=O)[C@H](CCCCN)NC(=O)[C@H](CCC(N)=O)NC(=O)[C@H](C)NC(=O)CNC(=O)[C@H](Cc2c[nH]cn2)NC(=O)[C@H](CCC(=O)O)NC(=O)COCCOCCNC(=O)COCCOCCNC(=O)CC[C@H](NC(=O)CCCCCCCCCCCCCCCCC(=O)O)C(=O)O)C(C)C)CSSC[C@@H](C(=O)O)NC(=O)CNC(=O)[C@H](CC(C)C)NC(=O)CNC(=O)[C@H](CO)NC(=O)[C@H](CC(C)C)NC(=O)[C@H](CO)NC(=O)CNC1=O [compound 1311] ({C18 diacid-γGlu-AEEA-AEEA}-EHGAQKKGVSSGCFGLPLDRIGSLSGLGC-OH; disulfide 13-29; C-terminus assumed),,12.7
CC[C@H](C)[C@@H]1NC(=O)[C@H](CCCNC(=N)N)NC(=O)[C@H](CC(=O)O)NC(=O)[C@H](CC(C)C)NC(=O)[C@@H]2CCCN2C(=O)[C@H](CC(C)C)NC(=O)CNC(=O)[C@H](Cc2ccccc2)NC(=O)[C@@H](NC(=O)CNC(=O)[C@H](CCCCN)NC(=O)[C@H](CO)NC(=O)[C@H](CC(C)C)NC(=O)CNC(=O)[C@H](CCCCN)NC(=O)[C@H](CCCCN)NC(=O)[C@H](CCC(N)=O)NC(=O)[C@H](C)NC(=O)CNC(=O)[C@H](CCCCN)NC(=O)[C@H](Cc2ccc(O)cc2)NC(=O)[C@H](CCCCN)NC(=O)[C@H](CCCNC(=N)N)NC(=O)[C@H](C)NC(=O)COCCOCCNC(=O)COCCOCCNC(=O)CC[C@H](NC(=O)CC[C@H](NC(=O)CC[C@H](NC(=O)CC[C@H](NC(=O)CC[C@H](NC(=O)CC[C@H](NC(=O)CCCCCCCCCCCCCCCCC(=O)O)C(=O)O)C(=O)O)C(=O)O)C(=O)O)C(=O)O)C(=O)O)CSSC[C@@H](C(=O)O)NC(=O)CNC(=O)[C@H](CC(C)C)NC(=O)CNC(=O)[C@H](CO)NC(=O)[C@H](CC(C)C)NC(=O)[C@H](CO)NC(=O)CNC1=O [compound 1460] ({C18 diacid-γGlu-γGlu-γGlu-γGlu-γGlu-γGlu-AEEA-AEEA}-ARKYKGAQKKGLSKGCFGLPLDRIGSLSGLGC-OH; disulfide 16-32),,32.4
CC[C@H](C)[C@@H]1NC(=O)[C@H](CCCNC(=N)N)NC(=O)[C@H](CC(=O)O)NC(=O)[C@H](CC(C)C)NC(=O)[C@@H]2CCCN2C(=O)[C@H](CC(C)C)NC(=O)CNC(=O)[C@H](Cc2ccccc2)NC(=O)[C@@H](NC(=O)CNC(=O)[C@H](CCCCN)NC(=O)[C@H](CO)NC(=O)[C@@H](NC(=O)CNC(=O)[C@@H](NC(=O)[C@H](CCCCN)NC(=O)[C@H](CCC(N)=O)NC(=O)[C@H](C)NC(=O)CNC(=O)[C@H](Cc2c[nH]cn2)NC(=O)[C@H](Cc2ccc(O)cc2)NC(=O)COCCOCCNC(=O)COCCOCCNC(=O)COCCOCCNC(=O)COCCOCCNC(=O)CC[C@H](NC(=O)CC[C@H](NC(=O)CCCCCCCCCCCCCCCCC(=O)O)C(=O)O)C(=O)O)[C@@H](C)O)C(C)C)CSSC[C@@H](C(=O)O)NC(=O)CNC(=O)[C@H](CC(C)C)NC(=O)CNC(=O)[C@H](CO)NC(=O)[C@H](CC(C)C)NC(=O)[C@H](CO)NC(=O)CNC1=O [compound 1425] ({C18 diacid-γGlu-γGlu-AEEA-AEEA-AEEA-AEEA}-YHGAQKTGVSKGCFGLPLDRIGSLSGLGC-OH; disulfide 13-29),,26.4
